Measured values reported in US10479780B2, “Aminopyrazole derivatives” (Chugai Seiyaku Kabushiki Kaisha, priority 2015, dated 2019).
pIC50: −log10 of the molar value. Where two headings read alike, the source gives them in different places.

Columns and labels:
Format in all cases: biochemical
human Src enzyme = target: T1, human Src enzyme (Homo sapiens, UniProt P12931); assay: Src enzyme inhibitory activity (time-resolved fluorometry, biotinylated peptide phosphorylation); conditions: read-out: SRC_IC50
T1 construct: purchased Carna Biosciences, Inc. 08-173
T1 sequence (P12931 whole entry): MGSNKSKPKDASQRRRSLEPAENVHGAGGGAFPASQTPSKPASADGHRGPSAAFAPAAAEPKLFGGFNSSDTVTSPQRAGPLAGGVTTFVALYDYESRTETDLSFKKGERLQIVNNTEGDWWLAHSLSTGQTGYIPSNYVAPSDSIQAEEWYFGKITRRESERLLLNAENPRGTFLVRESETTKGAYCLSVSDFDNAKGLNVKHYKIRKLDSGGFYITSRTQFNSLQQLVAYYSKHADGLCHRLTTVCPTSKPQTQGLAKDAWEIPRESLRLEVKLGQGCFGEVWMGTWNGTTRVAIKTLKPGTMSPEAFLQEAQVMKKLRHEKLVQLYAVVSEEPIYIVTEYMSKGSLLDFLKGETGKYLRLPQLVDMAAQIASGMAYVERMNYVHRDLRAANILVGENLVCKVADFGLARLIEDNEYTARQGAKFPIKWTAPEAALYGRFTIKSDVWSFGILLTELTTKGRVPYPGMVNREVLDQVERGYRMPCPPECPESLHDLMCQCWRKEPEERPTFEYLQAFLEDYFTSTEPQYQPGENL
Method in brief: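 Compounds were tested for blocking tyrosine phosphorylation of a biotinylated peptide substrate by recombinant human Src. Phosphorylated product was quantified by time-resolved fluorometry using europium cryptate and XL665 conjugates, and IC50 was calculated against the compound-free control.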

human Lck enzyme = target: T2, human Lck enzyme (Homo sapiens, UniProt P06239); assay: Lck enzyme inhibitory activity (time-resolved fluorometry, biotinylated peptide phosphorylation); conditions: read-out: LCK_IC50
T2 construct: purchased Carna Biosciences, Inc. 08-170
T2 sequence (P06239 whole entry): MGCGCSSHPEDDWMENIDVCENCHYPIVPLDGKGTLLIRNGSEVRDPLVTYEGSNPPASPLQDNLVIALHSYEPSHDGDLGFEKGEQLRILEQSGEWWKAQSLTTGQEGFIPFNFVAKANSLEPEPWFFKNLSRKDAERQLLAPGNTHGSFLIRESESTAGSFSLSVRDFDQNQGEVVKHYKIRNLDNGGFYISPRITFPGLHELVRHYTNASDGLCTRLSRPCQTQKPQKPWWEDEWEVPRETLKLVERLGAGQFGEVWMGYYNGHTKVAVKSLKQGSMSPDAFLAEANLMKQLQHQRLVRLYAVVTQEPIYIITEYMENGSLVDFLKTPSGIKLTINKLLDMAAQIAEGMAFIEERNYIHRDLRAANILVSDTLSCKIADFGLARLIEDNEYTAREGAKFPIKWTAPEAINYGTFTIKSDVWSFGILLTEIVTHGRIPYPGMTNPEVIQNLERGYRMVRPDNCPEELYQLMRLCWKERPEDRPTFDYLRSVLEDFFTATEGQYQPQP
Method in brief: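 Readout pairs a europium cryptate-labelled anti-phosphotyrosine antibody with XL665-streptavidin, measured by time-resolved fluorescence. IC50 derived from percent inhibition against untreated controls.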

human Yes1 enzyme = target: T3, human Yes1 enzyme (Homo sapiens, UniProt P07947); assay: Yes1 enzyme inhibitory activity (time-resolved fluorometry, biotinylated peptide phosphorylation); conditions: read-out: YES_IC50
T3 construct: made in house
T3 sequence (P07947 whole entry): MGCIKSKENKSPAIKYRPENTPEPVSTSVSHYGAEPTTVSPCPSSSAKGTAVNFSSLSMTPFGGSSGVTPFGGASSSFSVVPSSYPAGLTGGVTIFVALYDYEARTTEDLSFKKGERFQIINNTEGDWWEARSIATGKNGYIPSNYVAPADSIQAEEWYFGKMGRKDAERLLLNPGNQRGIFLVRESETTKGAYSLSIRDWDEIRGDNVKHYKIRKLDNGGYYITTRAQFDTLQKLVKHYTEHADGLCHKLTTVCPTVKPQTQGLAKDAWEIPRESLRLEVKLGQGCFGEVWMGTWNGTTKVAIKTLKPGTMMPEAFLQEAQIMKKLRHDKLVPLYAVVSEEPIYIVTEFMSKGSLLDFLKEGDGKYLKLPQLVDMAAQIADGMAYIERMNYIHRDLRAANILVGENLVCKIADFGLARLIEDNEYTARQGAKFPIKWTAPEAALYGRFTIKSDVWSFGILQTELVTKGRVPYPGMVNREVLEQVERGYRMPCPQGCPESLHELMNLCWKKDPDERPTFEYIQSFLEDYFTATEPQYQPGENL
Method in brief: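 Inhibition was expressed against a compound-free control to give IC50, using TR-FRET read-out (Eu-cryptate anti-pTyr antibody, streptavidin-XL665).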

[1] = biotinylated peptide phosphorylation

| SMILES | pIC50 (human Src enzyme; [1]) | pIC50 (human Lck enzyme; [1]) | pIC50 (human Yes1 enzyme; [1]) | pIC50 (human Src enzyme) | pIC50 (human Lck enzyme) | pIC50 (human Yes1 enzyme) |
| --- | --- | --- | --- | --- | --- | --- |
| COc1ccnc(S(=O)(=O)Nc2cc3[nH]c(C(=O)c4cnn(-c5cnc(Oc6c(F)cccc6F)cc5C)c4N)cc3cc2OCC(F)F)c1 [Example 5-1-569, N-[2-[5-amino-1-[6-(2,6-difluorophenoxy)-4-methylpyridin-3-yl]pyrazole-4-carbonyl]-5-(2,2-difluoroethoxy)-1H-indol-6-yl]-4-methoxypyridine-2-sulfonamide] | 6.64 | 7.66 | 8.39 | – | – | – |
| Cc1cc2cc(C(=O)c3cnn(-c4cnc(Oc5ccccc5F)cc4C)c3N)[nH]c2cc1NS(=O)(=O)CC(=O)NC(C)C [Example 5-1-058, 2-[[2-[5-amino-1-[6-(2-fluorophenoxy)-4-methylpyridin-3-yl]pyrazole-4-carbonyl]-5-methyl-1H-indol-6-yl]sulfamoyl]-N-propan-2-ylacetamide] | – | – | – | 7.24 | 7.60 | 8.80 |
| CC(C)N1CCC(c2cc3cc(C(=O)c4cnn(-c5ccc(Oc6cccc(F)c6F)cc5F)c4N)[nH]c3cc2F)CC1 [Example 4-2-007, [5-amino-1-[4-(2,3-difluorophenoxy)-2-fluorophenyl]pyrazol-4-yl]-[6-fluoro-5-(1-propan-2-ylpiperidin-4-yl)-1H-indol-2-yl]methanone] | 7.35 | 8.44 | 9.04 | – | – | – |
| Cc1cc(Oc2ccccc2F)ccc1-n1ncc(C(=O)c2cc3cc(OC(F)F)c(NC4CN(S(C)(=O)=O)C4)cc3[nH]2)c1N [Example 4-23-023, [5-amino-1-[4-(2-fluorophenoxy)-2-methylphenyl]pyrazol-4-yl]-[5-(difluoromethoxy)-6-[(1-methylsulfonylazetidin-3-yl)amino]-1H-indol-2-yl]methanone] | 7.77 | 8.24 | 9.35 | – | – | – |
| Cc1cc2cc(C(=O)c3cnn(-c4ccc(Oc5ccccc5F)cc4C)c3N)[nH]c2cc1C1CCN(S(=O)(=O)C2CC2)CC1 [Example 5-1-131, [5-amino-1-[4-(2-fluorophenoxy)-2-methylphenyl]pyrazol-4-yl]-[6-(1-cyclopropylsulfonylpiperidin-4-yl)-5-methyl-1H-indol-2-yl]methanone] | – | – | – | 8.13 | 8.25 | 8.96 |
| Cc1cc(Oc2ccccc2F)ccc1-n1ncc(C(=O)c2cc3cc(C(C)C)c(N)cc3[nH]2)c1N [Example 5-1-266, [5-amino-1-[4-(2-fluorophenoxy)-2-methylphenyl]pyrazol-4-yl]-(6-amino-5-propan-2-yl-1H-indol-2-yl)methanone] | – | – | – | 7.96 | 7.96 | 8.68 |
| Cc1cc(Oc2ccccc2F)ccc1-n1ncc(C(=O)c2cc3cc(OCC(F)F)c(Br)cc3[nH]2)c1N [Example 5-1-070, [5-amino-1-[4-(2-fluorophenoxy)-2-methylphenyl]pyrazol-4-yl]-[6-bromo-5-(2,2-difluoroethoxy)-1H-indol-2-yl]methanone] | – | – | – | 7.89 | 7.92 | 9.07 |
| Cc1cc(Oc2ccccc2F)nc(C)c1-n1ncc(C(=O)c2cc3cc(F)c(NS(C)(=O)=O)cc3[nH]2)c1N [Example 5-1-060, N-[2-[5-amino-1-[6-(2-fluorophenoxy)-2,4-dimethylpyridin-3-yl]pyrazole-4-carbonyl]-5-fluoro-1H-indol-6-yl]methanesulfonamide] | – | – | – | 6.41 | 7.38 | 7.09 |
| Cc1cc(Oc2c(F)cccc2F)ncc1-n1ncc(C(=O)c2cc3cc(F)c(N4C(=O)NC5(CCOCC5)C4=O)cc3[nH]2)c1N [Example 5-1-368, 3-[2-[5-amino-1-[6-(2,6-difluorophenoxy)-4-methylpyridin-3-yl]pyrazole-4-carbonyl]-5-fluoro-1H-indol-6-yl]-8-oxa-1,3-diazaspiro[4.5] decane-2,4-dione] | – | – | – | 7.21 | 8.06 | 8.42 |
| Cc1cc(Oc2ccccc2F)ccc1-n1ncc(C(=O)c2cc3cc(F)c(N4CC(C)(C)NS4(=O)=O)cc3[nH]2)c1N [Example 5-1-302, (5-amino-1-(4-(2-fluorophenoxy)-2-methylphenyl)-1H-pyrazol-4-yl)(6-(4,4-dimethyl-1,1-dioxido-1,2,5-thiadiazolidin-2-yl)-5-fluoro-1H-indol-2-yl)methanone] | – | – | – | 7.30 | 7.66 | 8.72 |
| Cc1cc(Oc2c(F)cccc2F)ncc1-n1ncc(C(=O)c2cc3cc(F)c(NS(=O)(=O)c4cccc(F)c4)cc3[nH]2)c1N [Example 5-1-553, N-[2-[5-amino-1-[6-(2,6-difluorophenoxy)-4-methylpyridin-3-yl]pyrazole-4-carbonyl]-5-fluoro-1H-indol-6-yl]-3-fluorobenzenesulfonamide] | 5.89 | 6.43 | 7.77 | – | – | – |
| Cc1cc(Oc2ccccc2F)ncc1-n1ncc(C(=O)c2cc3cc(N4CCOCC4)c(NS(=O)(=O)CCCF)cc3[nH]2)c1N [Example 4-24-016, N-[2-[5-amino-1-[6-(2-fluorophenoxy)-4-methylpyridin-3-yl]pyrazole-4-carbonyl]-5-morpholin-4-yl-1H-indol-6-yl]-3-fluoropropane-1-sulfonamide] | 7.11 | 7.49 | 9.06 | – | – | – |
| Cc1cc2cc(C(=O)c3cnn(-c4cnc(Oc5ccccc5F)cc4C)c3N)[nH]c2cc1C1CCN(S(=O)(=O)C2CC2)CC1 [Example 5-1-123, [5-amino-1-[6-(2-fluorophenoxy)-4-methylpyridin-3-yl]pyrazol-4-yl]-[6-(1-cyclopropylsulfonylpiperidin-4-yl)-5-methyl-1H-indol-2-yl]methanone] | – | – | – | 7.04 | 7.48 | 8.70 |
| Cc1cc(Oc2ccccc2F)cc(F)c1-n1ncc(C(=O)c2cc3cc(OC(F)F)c(N4CCOC4=O)cc3[nH]2)c1N [Example 4-25-019, 3-[2-[5-amino-1-[2-fluoro-4-(2-fluorophenoxy)-6-methylphenyl]pyrazole-4-carbonyl]-5-(difluoromethoxy)-1H-indol-6-yl]-1,3-oxazolidin-2-one] | 7.37 | 7.89 | 8.28 | – | – | – |
| Cc1cc(Oc2cccc(F)c2F)cc(F)c1-n1ncc(C(=O)c2cc3cc(NS(C)(=O)=O)c(F)cc3[nH]2)c1N [Example 4-2-100, N-[2-[5-amino-1-[4-(2,3-difluorophenoxy)-2-fluoro-6-methylphenyl]pyrazole-4-carbonyl]-6-fluoro-1H-indol-5-yl]methanesulfonamide] | 7.57 | 8.68 | 9.14 | – | – | – |
| Cc1cc(Oc2c(F)cccc2F)ncc1-n1ncc(C(=O)c2cc3cc(F)c(N4CC5(CCCC5)NS4(=O)=O)cc3[nH]2)c1N [Example 5-1-399, [5-amino-1-[6-(2,6-difluorophenoxy)-4-methylpyridin-3-yl]pyrazol-4-yl]-[6-(2,2-dioxo-2λ6-thia-1,3-diazaspiro[4.4]nonan-3-yl)-5-fluoro-1H-indol-2-yl]methanone] | 6.60 | 7.28 | 8.24 | – | – | – |
| Cc1cc(Oc2ccccc2Cl)ncc1-n1ncc(C(=O)c2cc3cc(Cl)c(NS(C)(=O)=O)cc3[nH]2)c1N [Example 4-2-088, N-[2-[5-amino-1-[6-(2-chlorophenoxy)-4-methylpyridin-3-yl]pyrazole-4-carbonyl]-5-chloro-1H-indol-6-yl]methanesulfonamide] | 6.77 | 7.32 | 8.59 | – | – | – |
| Cc1cnc(F)c(S(=O)(=O)Nc2cc3[nH]c(C(=O)c4cnn(-c5ccc(Oc6ccccc6F)cc5C)c4N)cc3cc2F)c1 [Example 5-1-522, N-[2-[5-amino-1-[4-(2-fluorophenoxy)-2-methylphenyl]pyrazole-4-carbonyl]-5-fluoro-1H-indol-6-yl]-2-fluoro-5-methylpyridine-3-sulfonamide] | 6.60 | 6.92 | 8.74 | – | – | – |
| CS(=O)(=O)Nc1cc2[nH]c(C(=O)c3cnn(-c4ccc(Oc5ccccn5)cc4Cl)c3N)cc2cc1F [Example 4-1-003, N-[2-[5-amino-1-(2-chloro-4-pyridin-2-yloxyphenyl)pyrazole-4-carbonyl]-5-fluoro-1H-indol-6-yl]methanesulfonamide] | 7.26 | 7.85 | 8.92 | – | – | – |
| Cc1cc(Oc2ccccc2F)ncc1-n1ncc(C(=O)c2cc3cc(F)c(NS(=O)(=O)c4cc(F)cc(F)c4)cc3[nH]2)c1N [Example 5-1-564, N-[2-[5-amino-1-[6-(2-fluorophenoxy)-4-methylpyridin-3-yl]pyrazole-4-carbonyl]-5-fluoro-1H-indol-6-yl]-3,5-difluorobenzenesulfonamide] | 5.82 | 6.17 | 7.85 | – | – | – |
| Nc1c(C(=O)c2cc3cc(F)c(NS(=O)(=O)CCCF)cc3[nH]2)cnn1-c1c(Cl)cc(Oc2ccccc2F)cc1Cl [Example 5-1-033, N-[2-[5-amino-1-[2,6-dichloro-4-(2-fluorophenoxy)phenyl]pyrazole-4-carbonyl]-5-fluoro-1H-indol-6-yl]-3-fluoropropane-1-sulfonamide] | – | – | – | 6.40 | 6.64 | 8.08 |
| Cc1cc2cc(C(=O)c3cnn(-c4ccc(Oc5ccccc5F)cc4C)c3N)[nH]c2cc1N1C(=O)NC2(CCCCC2)C1=O [Example 5-1-409, 3-[2-[5-amino-1-[4-(2-fluorophenoxy)-2-methylphenyl]pyrazole-4-carbonyl]-5-methyl-1H-indol-6-yl]-1,3-diazaspiro[4.5]decane-2,4-dione] | 6.80 | 7.70 | 8.51 | – | – | – |
